Measurements as given in US20260258038A1 (priority 2023, published 2026).

What was measured:
Plasmopara viticola = experiment: whole plant or invertebrate; type: in vivo; details: foliar, read-out: control of Plasmopara viticola (percent disease control compared to untreated)
Phytophthora infestans = experiment: whole plant or invertebrate; type: in vivo; details: in Solanum lycopersicum, foliar, read-out: control of Phytophthora infestans (percent disease control compared to untreated)
Pythium ultimum = Pythium ultimum / liquid culture (seedling damping off); type: cell-based; details: Globisporangium ultimum, liquid culture in PDB, 24° C., 2-3 days after application, read-out: control of Pythium ultimum (inhibition of growth, photometric)
Protocol: Pythium ultimum/Liquid Culture (Seedling Damping Off)
Mycelia fragments and oospores of a newly grown liquid culture of the fungus are directly mixed into nutrient broth (PDB potato dextrose broth). After placing a (DMSO) solution of test compound into a microtiter plate (96-well format), the nutrient broth containing the fungal mycelia/spore mixture is added. The test plates are incubated at 24° C. and the inhibition of growth is determined photometrically 2-3 days after application.

COCN(C(=O)c1ccc(F)c(OC)c1)c1ccc2ncc(-c3ccc(NC(=O)OC)nc3)n2c1 [Compound 25, methyl N-[5-[6-[(4-fluoro-3-methoxy-benzoyl)-(methoxymethyl)amino]imidazo[1,2-a]pyridin-3-yl]-2-pyridyl]carbamate]
≥ 80%: pest or weed control at 200 ppm (Plasmopara viticola) | pest or weed control at 200 ppm (Phytophthora infestans) | inhibition at 20 ppm (Pythium ultimum)

COC(=O)Nc1ccc(-c2cnc3ccc(N(C)C(=O)c4ccc(F)c(OC)c4)cn23)cn1 [Compound 26, methyl N-[5-[6-[(4-fluoro-3-methoxy-benzoyl)-methyl-amino]imidazo[1,2-a]pyridin-3-yl]-2-pyridyl]carbamate]
≥ 80%: pest or weed control at 200 ppm (Plasmopara viticola) | pest or weed control at 200 ppm (Phytophthora infestans) | inhibition at 20 ppm (Pythium ultimum)

COC(=O)Nc1ccc(-c2cnc3c(C)cc(N(C)C(=O)c4ccc(Cl)c(C)c4)cn23)cn1 [Compound 41, methyl N-[5-[6-[(4-chloro-3-methyl-benzoyl)-methyl-amino]-8-methyl-imidazo[1,2-a]pyridin-3-yl]-2-pyridyl]carbamate]
≥ 80%: pest or weed control at 200 ppm (Plasmopara viticola) | pest or weed control at 200 ppm (Phytophthora infestans) | inhibition at 20 ppm (Pythium ultimum)

COC(=O)Nc1ccc(-c2cnc3c(C)cc(N(C)C(=O)c4ccc(F)cc4)cn23)cn1 [Compound 45, methyl N-[5-[6-[(4-fluorobenzoyl)-methyl-amino]-8-methyl-imidazo[1,2-a]pyridin-3-yl]-2-pyridyl]carbamate]
≥ 80%: pest or weed control at 200 ppm (Plasmopara viticola) | pest or weed control at 200 ppm (Phytophthora infestans) | inhibition at 20 ppm (Pythium ultimum)

COC(=O)Nc1ccc(-c2cnc3c(C)cc(N(C)C(=O)c4ccc(C#N)cc4)cn23)cn1 [Compound 47, methyl N-[5-[6-[(4-cyanobenzoyl)-methyl-amino]-8-methyl-imidazo[1,2-a]pyridin-3-yl]-2-pyridyl]carbamate]
≥ 80%: pest or weed control at 200 ppm (Plasmopara viticola) | pest or weed control at 200 ppm (Phytophthora infestans) | inhibition at 20 ppm (Pythium ultimum)

COC(=O)Nc1ccc(-c2cnc3c(C)cc(N(C)C(=O)c4ccc(Cl)cc4)cn23)cn1 [Compound 49, methyl N-[5-[6-[(4-chlorobenzoyl)-methyl-amino]-8-methyl-imidazo[1,2-a]pyridin-3-yl]-2-pyridyl]carbamate]
≥ 80%: pest or weed control at 200 ppm (Plasmopara viticola) | pest or weed control at 200 ppm (Phytophthora infestans) | inhibition at 20 ppm (Pythium ultimum)

COC(=O)Nc1ccc(-c2cnc3c(C)cc(N(C)C(=O)c4cccc(OC)c4)cn23)cn1 [Compound 53, methyl N-[5-[6-[(3-methoxybenzoyl)-methyl-amino]-8-methyl-imidazo[1,2-a]pyridin-3-yl]-2-pyridyl]carbamate]
≥ 80%: pest or weed control at 200 ppm (Plasmopara viticola) | pest or weed control at 200 ppm (Phytophthora infestans) | inhibition at 20 ppm (Pythium ultimum)

COC(=O)Nc1ccc(-c2cnc3c(C)cc(N(C)C(=O)c4ccc(F)cc4F)cn23)cn1 [Compound 54, methyl N-[5-[6-[(2,4-difluorobenzoyl)-methyl-amino]-8-methyl-imidazo[1,2-a]pyridin-3-yl]-2-pyridyl]carbamate]
≥ 80%: pest or weed control at 200 ppm (Plasmopara viticola) | pest or weed control at 200 ppm (Phytophthora infestans) | inhibition at 20 ppm (Pythium ultimum)

COC(=O)Nc1ccc(-c2cnc3c(C#N)cc(N(C)C(=O)c4ccc(F)c(OC)c4)cn23)cn1 [Compound 55, methyl N-[5-[8-cyano-6-[(4-fluoro-3-methoxy-benzoyl)-methyl-amino]imidazo[1,2-a]pyridin-3-yl]-2-pyridyl]carbamate]
≥ 80%: pest or weed control at 200 ppm (Plasmopara viticola) | pest or weed control at 200 ppm (Phytophthora infestans) | inhibition at 20 ppm (Pythium ultimum)

COC(=O)Nc1ccc(-c2cnc3c(C4CC4)cc(N(C)C(=O)c4ccc(F)c(OC)c4)cn23)cn1 [Compound 56, methyl N-[5-[8-cyclopropyl-6-[(4-fluoro-3-methoxy-benzoyl)-methyl-amino]imidazo[1,2-a]pyridin-3-yl]-2-pyridyl]carbamate]
≥ 80%: pest or weed control at 200 ppm (Plasmopara viticola) | pest or weed control at 200 ppm (Phytophthora infestans) | inhibition at 20 ppm (Pythium ultimum)

CCc1cc(N(C)C(=O)c2ccc(F)c(OC)c2)cn2c(-c3ccc(NC(=O)OC)nc3)cnc12 [Compound 57, methyl N-[5-[8-ethyl-6-[(4-fluoro-3-methoxy-benzoyl)-methyl-amino]imidazo[1,2-a]pyridin-3-yl]-2-pyridyl]carbamate]
≥ 80%: pest or weed control at 200 ppm (Plasmopara viticola) | pest or weed control at 200 ppm (Phytophthora infestans) | inhibition at 20 ppm (Pythium ultimum)

C=CCCc1cc(N(C)C(=O)c2ccc(F)c(OC)c2)cn2c(-c3ccc(NC(=O)OC)nc3)cnc12 [Compound 58, methyl N-[5-[8-but-3-enyl-6-[(4-fluoro-3-methoxy-benzoyl)-methyl-amino]imidazo[1,2-a]pyridin-3-yl]-2-pyridyl]carbamate]
≥ 80%: pest or weed control at 200 ppm (Plasmopara viticola) | pest or weed control at 200 ppm (Phytophthora infestans) | inhibition at 20 ppm (Pythium ultimum)

COC(=O)Nc1ccc(-c2cnc3c(Br)cc(N(C)C(=O)c4ccc(F)c(OC)c4)cn23)cn1 [Compound 60, methyl N-[5-[8-bromo-6-[(4-fluoro-3-methoxy-benzoyl)-methyl-amino]imidazo[1,2-a]pyridin-3-yl]-2-pyridyl]carbamate]
≥ 80%: pest or weed control at 200 ppm (Plasmopara viticola) | pest or weed control at 200 ppm (Phytophthora infestans) | inhibition at 20 ppm (Pythium ultimum)
